# Assay results reported in ChEMBL document CHEMBL1764960, “Stereochemical investigations of isochromenones and isobenzofuranones isolated from Leptosphaeria sp. KTC 727” (J Nat Prod, 2011).
# Test system: Bipolaris oryzae
# Assay: Antifungal activity against Cochliobolus miyabeanus assessed as hyphal growth inhibition after 36 hrs
# Assay type: functional, organism-based
row,SMILES,IC50 [µg/mL]
1,C=C1OC(=O)c2c(O)cc(OC)c(C)c2[C@@]1(C)O,0.5
2,COc1cc(O)c2c(c1C)[C@](C)([C@H](C)O)OC2=O,500
3,C=C1OC(=O)c2c(O)cc(O)c(C)c2[C@@]1(C)O,10
4,COc1cc(O)c2c(c1C)[C@](C)(C(C)=O)OC2=O,10
